Tests used:
C57BL/6 mice [1] = assay: Neutrophil infiltration in bronchoalveolar lavage fluid after intratracheal administration of hydroxylated cholesterols; assay type: in vivo; settings: 50 μg/50 μl/mouse/day for 4 days, lavage on the next day, FIG. 8
Description: To examine whether the airway inflammatory reaction by 25-HC is observed in vivo as well, the effect of 25-HC administered to the lung of a mouse was examined.
25-HC or a control (physiological saline containing a solvent at the same concentration as used in dissolving 25-HC (9.5% aqueous ethanol)), or 4β-hydroxycholesterol (4β-HC), was intratracheally administered for 4 days at a dose of 50 μg/50 μl/mouse/day to C57BL/6 mice (7-week-old, male) under anesthesia with ketamine and xylazine, and on the next day, the bronchoalveolar lavage fluid was recovered, and the number of inflammatory cells was determined.

[2] = test system: cells containing alveolar macrophages; assay: Stimulation with LPS and 25-HC of bronchoalveolar lavage fluid cells from a cigarette smoke-exposed mouse; cytokine mRNA by real-time quantitative PCR; assay type: cell-based; settings: co-stimulation with LPS (10 ng/ml) and 25-HC (0.3 to 3 μg/ml), 24 hours, compared with LPS alone; FIG. 6
Description: To examine the involvement of CH25H on the morbid state of COPD, the effect of added 25-hydroxycholesterol (25-HC), i.e. CH25H reaction product, on alveolar macrophages was examined. According to the method described in EXAMPLE 4, a mouse was exposed to cigarette smoke for 4 days, and on the next day of the final exposure, the bronchoalveolar lavage fluid was recovered according to the method described in EXAMPLE 4, and cells containing alveolar macrophages were seeded on a 96-well plate at a density of 1×10^6 cells/ml. On the next day, the cells were stimulated with LPS (10 ng/ml) and 25-HC (0.3 to 3 μg/ml) and cultured for 24 hours. According to the method described in EXAMPLE 1, total RNA was then recovered from the cells according to the attached manual, and the amounts of mRNAs of CXCL2 and IL-1β, that is, inflammatory cytokines, were quantified by the real-time quantitative PCR method. As each probe, the corresponding probe was selected from Assays on demand gene expression product (Applied Biosystems) and used. The expression level of each gene was calculated as relative expression value to rodent GAPDH by the comparative Ct value method.

C57BL/6 mice [3] = assay: Production of cytokines in bronchoalveolar lavage fluid after intratracheal administration of 25-HC (ELISA); assay type: in vivo; settings: 50 μg/50 μl/mouse, 3 hours after administration, vs control, FIG. 7
Description: To examine whether production of cytokines by 25-HC is observed in vivo as well, the effect of 25-HC administered to the lung of a mouse was examined.
25-HC or a control (physiological saline containing a solvent at the same concentration as used in dissolving 25-HC (10% aqueous ethanol)) was intratracheally administered at a dose of 50 μg/50 μl/mouse to C57BL/6 mice (6-week-old, male) under anesthesia with halothane, and 3, 6, 12, 24 and 48 hours after administration, the bronchoalveolar lavage fluid was recovered, and the amounts of KC and MIP-2, that is, inflammatory cytokines in the lavage fluid were measured by a commercial ELISA kit.

SMILES: C[C@H](CCCC(C)(C)O)[C@H]1CC[C@H]2[C@@H]3CC=C4C[C@@H](O)CC[C@]4(C)[C@H]3CC[C@]12C [25-HC, 25-hydroxycholesterol]
- neutrophil infiltration (number of neutrophils in bronchoalveolar lavage fluid) (C57BL/6 mice [1]): significant neutrophil infiltration was recognized
- expression of CXCL2 (mRNA, relative to rodent GAPDH) [2]: increased depending on the concentration of 25HC
- expression of IL-1β (mRNA, relative to rodent GAPDH) [2]: increased depending on the concentration of 25HC
- amount of KC in bronchoalveolar lavage fluid (C57BL/6 mice [3]): significant increase
- amount of MIP-2 in bronchoalveolar lavage fluid (C57BL/6 mice [3]): significant increase

Reference: patent US7981598B2, “Preventive/remedy for respiratory diseases” (Takeda Pharmaceutical Company Limited, priority 2004, dated 2011)
